Data from PMC10301922, “Anti-Oxidant, Anti-Mutagenic Activity and Safety Evaluation of Antrocin” (Toxics, 2023).
≈ marks a conversion by molar mass, not a printed value.

How the values were obtained:
[1] = MTT assay for cytotoxicity; type: cell-based, Chinese hamster; conditions: Chinese hamster, CHO-K1 cells, read-out: cell viabilities
CHO-K1 cells = assay: MTT assay for cytotoxicity; type: cell-based, Chinese hamster; conditions: Cricetulus griseus, MTT, 24 h, read-out: half maximal inhibitory concentration (IC50)
Sprague Dawley rats = assay: 28-day oral toxicity test: histopathological examination; conditions: for Bone, femur: Hypertrophy, epiphysis; Score value: grades 1-5
[2] = female rats, 7.5 mg/kg oral 28 d
[3] = female rats, 37.5 mg/kg oral 28 d

C=C1CC[C@H]2C(C)(C)CCC[C@@]23C(=O)OC[C@@H]13 [Antrocin, (-)-Antrocin]
viability at 24 h, 31.25 μg/mL ([1]; 31.25 μg/mL): 81.3 ± 5%
viability at 24 h, 62.5 μg/mL ([1]; 62.5 μg/mL): 62.9 ± 8.9%
viability at 24 h, 250 μg/mL ([1]; 250 μg/mL): 24.8 ± 1.9%
viability at 24 h, 500 μg/mL ([1]; 500 μg/mL): 22.1 ± 1.5%
IC50 (CHO-K1 cells): ~123 µg/mL (≈ 524 µM)
Adrenal gland: Congestion, cortex, focal, slight; incidence (Sprague Dawley rats; [2]): -
Aorta: histopathological lesions (Sprague Dawley rats; [2]): -
Bone, femur: Hypertrophy, epiphysis, diffuse, slight to moderate/severe; incidence (Sprague Dawley rats; [2]): 0/5
Cervix: histopathological lesions (Sprague Dawley rats; [2]): -
Esophagus: histopathological lesions (Sprague Dawley rats; [2]): -
Eyes: histopathological lesions (Sprague Dawley rats; [2]): -
Heart: histopathological lesions (Sprague Dawley rats; [2]): -
Kidney: Cast, tubule, focal, slight; incidence (Sprague Dawley rats; [2]): -
Liver: Fatty change, multifocal, slight; incidence (Sprague Dawley rats; [2]): 1/5
Lung: histopathological lesions (Sprague Dawley rats; [2]): -
Optic nerve: histopathological lesions (Sprague Dawley rats; [2]): -
Ovary: Increase, follicle, multifocal, moderate to moderate/severe; incidence (Sprague Dawley rats; [2]): 0/5
Oviduct: histopathological lesions (Sprague Dawley rats; [2]): -
Pancreas: histopathological lesions (Sprague Dawley rats; [2]): -
Parathyroid gland: histopathological lesions (Sprague Dawley rats; [2]): -
Pituitary: histopathological lesions (Sprague Dawley rats; [2]): -
Salivary gland: histopathological lesions (Sprague Dawley rats; [2]): -
Sciatic nerve: histopathological lesions (Sprague Dawley rats; [2]): -
Skeletal muscle: histopathological lesions (Sprague Dawley rats; [2]): -
Skin: histopathological lesions (Sprague Dawley rats; [2]): -
Spinal cord: histopathological lesions (Sprague Dawley rats; [2]): -
Spleen: histopathological lesions (Sprague Dawley rats; [2]): -
Stomach: histopathological lesions (Sprague Dawley rats; [2]): -
Thymus: histopathological lesions (Sprague Dawley rats; [2]): -
Thyroid gland: histopathological lesions (Sprague Dawley rats; [2]): -
Tongue: histopathological lesions (Sprague Dawley rats; [2]): -
Trachea: histopathological lesions (Sprague Dawley rats; [2]): -
Urinary bladder: histopathological lesions (Sprague Dawley rats; [2]): -
Uterus: histopathological lesions (Sprague Dawley rats; [2]): -
Vagina: histopathological lesions (Sprague Dawley rats; [2]): -
Bone, femur: Hypertrophy, epiphysis; Score value (Sprague Dawley rats; [2]): 0
Adrenal gland: Congestion, cortex, focal, slight; incidence (Sprague Dawley rats; [3]): -
Aorta: histopathological lesions (Sprague Dawley rats; [3]): -
Bone, femur: Hypertrophy, epiphysis, diffuse, slight to moderate/severe; incidence (Sprague Dawley rats; [3]): 0/5
Cervix: histopathological lesions (Sprague Dawley rats; [3]): -
Esophagus: histopathological lesions (Sprague Dawley rats; [3]): -
Eyes: histopathological lesions (Sprague Dawley rats; [3]): -
Harderian gland: Infiltration, mononuclear cell, focal, minimal; incidence (Sprague Dawley rats; [3]): 1/5
Heart: histopathological lesions (Sprague Dawley rats; [3]): -
Kidney: Cast, tubule, focal, slight; incidence (Sprague Dawley rats; [3]): -
Lung: histopathological lesions (Sprague Dawley rats; [3]): -
Optic nerve: histopathological lesions (Sprague Dawley rats; [3]): -
Ovary: Increase, follicle, multifocal, moderate to moderate/severe; incidence (Sprague Dawley rats; [3]): 0/5
Oviduct: histopathological lesions (Sprague Dawley rats; [3]): -
Pancreas: histopathological lesions (Sprague Dawley rats; [3]): -
Parathyroid gland: histopathological lesions (Sprague Dawley rats; [3]): -
Pituitary: histopathological lesions (Sprague Dawley rats; [3]): -
Salivary gland: histopathological lesions (Sprague Dawley rats; [3]): -
Sciatic nerve: histopathological lesions (Sprague Dawley rats; [3]): -
Skeletal muscle: histopathological lesions (Sprague Dawley rats; [3]): -
Skin: histopathological lesions (Sprague Dawley rats; [3]): -
Spinal cord: histopathological lesions (Sprague Dawley rats; [3]): -
Spleen: histopathological lesions (Sprague Dawley rats; [3]): -
Stomach: histopathological lesions (Sprague Dawley rats; [3]): -
Thymus: histopathological lesions (Sprague Dawley rats; [3]): -
Thyroid gland: histopathological lesions (Sprague Dawley rats; [3]): -
Tongue: histopathological lesions (Sprague Dawley rats; [3]): -
Trachea: histopathological lesions (Sprague Dawley rats; [3]): -
Urinary bladder: histopathological lesions (Sprague Dawley rats; [3]): -
Uterus: histopathological lesions (Sprague Dawley rats; [3]): -
Vagina: histopathological lesions (Sprague Dawley rats; [3]): -
Bone, femur: Hypertrophy, epiphysis; Score value (Sprague Dawley rats; [3]): 0
treatment-related lesions in the histopathological examination (Sprague Dawley rats; high dose (37.5 mg/kg) oral 28 d): no significant treatment-related lesions
Adrenal gland: Congestion, cortex, multifocal, slight; incidence (Sprague Dawley rats; male rats, 7.5 mg/kg oral 28 d): -
Aorta: histopathological lesions (Sprague Dawley rats; male rats, 7.5 mg/kg oral 28 d): -
Bone marrow, femur: Hypocellularity, diffuse, slight to moderate/severe; incidence (Sprague Dawley rats; male rats, 7.5 mg/kg oral 28 d): 0/5
Bone marrow, sternum: Hypocellularity, diffuse, moderate; incidence (Sprague Dawley rats; male rats, 7.5 mg/kg oral 28 d): 0/5
Bone, femur: Hypertrophy, epiphysis, diffuse, slight to moderate/severe; incidence (Sprague Dawley rats; male rats, 7.5 mg/kg oral 28 d): 0/5
Coagulative gland: histopathological lesions (Sprague Dawley rats; male rats, 7.5 mg/kg oral 28 d): -
Epididymis: Granuloma, spermatic, focal, moderate; incidence (Sprague Dawley rats; male rats, 7.5 mg/kg oral 28 d): -
Esophagus: histopathological lesions (Sprague Dawley rats; male rats, 7.5 mg/kg oral 28 d): -
Eyes: histopathological lesions (Sprague Dawley rats; male rats, 7.5 mg/kg oral 28 d): -
Harderian gland: histopathological lesions (Sprague Dawley rats; male rats, 7.5 mg/kg oral 28 d): -
Heart: Infiltration, mononuclear cell, focal, minimal to slight; incidence (Sprague Dawley rats; male rats, 7.5 mg/kg oral 28 d): 1/5
Intestine, large, Caecum: histopathological lesions (Sprague Dawley rats; male rats, 7.5 mg/kg oral 28 d): -
Intestine, large, Colon: histopathological lesions (Sprague Dawley rats; male rats, 7.5 mg/kg oral 28 d): -
Intestine, large, Rectum: histopathological lesions (Sprague Dawley rats; male rats, 7.5 mg/kg oral 28 d): -
